For test [1], the target named is Ba/F3-EGFR-insSVD cells (Homo sapiens, UniProt P00533, DUP768-770, cells depend on it). In words: Ba/F3 cell survival assay (Cell Titer-Glo), EGFR-insSVD. As to conditions: without IL-3, with 10 ng/mL EGF, 48 h; read-out: BA/F3 (insSVD) IC50. The test is classed as cell-based. The method, then: (§1) 293T cells from ATCC were transfected with pBABEpuro expression constructs for WT EGFR or EGFR-insSVD and pCL-Eco packaging vector using Fugene-6 transfection reagent from Promega. Plates were incubated at 37° C. for 48 h. Retrovirus was harvested by filtering the media supernatant through a 0.45 μm filter.
Sequence of Ba/F3-EGFR-insSVD cells (P00533 with tags, fused parts or gaps DUP768-770): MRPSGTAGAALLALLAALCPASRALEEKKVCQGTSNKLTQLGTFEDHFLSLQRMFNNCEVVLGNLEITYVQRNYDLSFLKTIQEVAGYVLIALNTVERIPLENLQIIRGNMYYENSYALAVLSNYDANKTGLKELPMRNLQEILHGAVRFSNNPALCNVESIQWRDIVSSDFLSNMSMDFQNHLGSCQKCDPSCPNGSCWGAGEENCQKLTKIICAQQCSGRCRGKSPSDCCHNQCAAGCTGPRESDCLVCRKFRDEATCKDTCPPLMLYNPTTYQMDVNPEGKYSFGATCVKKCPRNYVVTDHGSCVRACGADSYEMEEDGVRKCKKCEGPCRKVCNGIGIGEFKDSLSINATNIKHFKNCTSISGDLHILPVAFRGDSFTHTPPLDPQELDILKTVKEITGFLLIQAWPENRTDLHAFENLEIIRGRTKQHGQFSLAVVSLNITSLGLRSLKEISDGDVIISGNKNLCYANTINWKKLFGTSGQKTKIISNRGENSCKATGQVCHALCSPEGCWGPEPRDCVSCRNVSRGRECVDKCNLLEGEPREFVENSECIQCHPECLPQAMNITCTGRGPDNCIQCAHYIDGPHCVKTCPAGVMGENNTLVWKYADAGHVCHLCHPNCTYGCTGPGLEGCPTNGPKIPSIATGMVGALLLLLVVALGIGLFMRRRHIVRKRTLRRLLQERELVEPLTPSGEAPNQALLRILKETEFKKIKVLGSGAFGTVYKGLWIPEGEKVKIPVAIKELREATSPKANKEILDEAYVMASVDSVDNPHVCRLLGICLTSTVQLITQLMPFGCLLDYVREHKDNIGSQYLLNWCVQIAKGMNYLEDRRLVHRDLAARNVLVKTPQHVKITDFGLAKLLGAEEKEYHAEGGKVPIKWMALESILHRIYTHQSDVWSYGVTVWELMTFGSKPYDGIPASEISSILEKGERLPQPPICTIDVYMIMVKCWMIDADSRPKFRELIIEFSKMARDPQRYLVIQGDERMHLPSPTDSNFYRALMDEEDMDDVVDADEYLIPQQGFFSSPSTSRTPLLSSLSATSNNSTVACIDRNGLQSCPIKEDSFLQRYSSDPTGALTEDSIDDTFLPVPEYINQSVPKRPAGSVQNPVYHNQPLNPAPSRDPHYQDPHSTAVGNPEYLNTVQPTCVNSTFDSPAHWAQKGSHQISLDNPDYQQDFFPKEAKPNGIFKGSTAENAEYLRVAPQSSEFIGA
(§2) Ba/F3 cells purchased from DSMZ were grown in RPMI+10% FBS+10 ng/mL IL-3 and infected with filtered retroviral supernatant at a 1:2 dilution. Polybrene was added to a concentration of 8 μg/mL, plates were spun for 90 min, and incubated overnight at 37° C. 2 μg/mL puromycin was added to the infected cells 24 h after infection and cells were continually grown in the presence of puromycin and 10 ng/mL IL-3. Following stably expressing Ba/F3 cell lines were generated: Ba/F3-EGFR-WT, Ba/F3-EGFR-insSVD, (Ba/F3-vector-control).
(§3) For cell survival assays, Ba/F3 cells were grown to a density of 1-2 million cells per mL, spun down and resuspended in media without IL-3, and replated at a concentration 200,000-500,000 cells per mL. The cells ectopically expressing WT EGFR or EGFR-insSVD were plated with 10 ng/mL Millipore Culture grade EGF. The cells ectopically expressing pBABEpuro empty vector were plated with 10 ng/mL IL-3. 2 days later, cells were plated in 50 μL in a 384 well plate at a concentration of 4000 cells per well for cells assayed in the absence of IL-3 and 2000 cells per well for cells assayed in the presence of IL-3. 100 nL of compound was added to each well using a 100 nL pin head, and plates were incubated at 37° C. for 48 h.
(§4) Cell viability was measured by adding 20 μL of Cell Titer-Glo Luminescent Cell Viability Reagent diluted 1:3 in PBS. Plates were sealed with Perkin Elmer Top-Seal, inverted several times to mix, and immediately centrifuged at 1000 rpm for 2 min. Plates were incubated in low light conditions for 8-10 min and luminescence was measured.
Background: ATP-based viability assays read luminescence as a measure of living cells.

In test [2] the target is T1, EGFR with insertion of SVD between D770 and N771 (EGFR ins SVD) (Homo sapiens, UniProt P00533, DUP768-770).
T1 construct: made in house; host or cells: Sf9 insect cells (baculovirus)
T1 sequence (P00533 with tags, fused parts or gaps DUP768-770): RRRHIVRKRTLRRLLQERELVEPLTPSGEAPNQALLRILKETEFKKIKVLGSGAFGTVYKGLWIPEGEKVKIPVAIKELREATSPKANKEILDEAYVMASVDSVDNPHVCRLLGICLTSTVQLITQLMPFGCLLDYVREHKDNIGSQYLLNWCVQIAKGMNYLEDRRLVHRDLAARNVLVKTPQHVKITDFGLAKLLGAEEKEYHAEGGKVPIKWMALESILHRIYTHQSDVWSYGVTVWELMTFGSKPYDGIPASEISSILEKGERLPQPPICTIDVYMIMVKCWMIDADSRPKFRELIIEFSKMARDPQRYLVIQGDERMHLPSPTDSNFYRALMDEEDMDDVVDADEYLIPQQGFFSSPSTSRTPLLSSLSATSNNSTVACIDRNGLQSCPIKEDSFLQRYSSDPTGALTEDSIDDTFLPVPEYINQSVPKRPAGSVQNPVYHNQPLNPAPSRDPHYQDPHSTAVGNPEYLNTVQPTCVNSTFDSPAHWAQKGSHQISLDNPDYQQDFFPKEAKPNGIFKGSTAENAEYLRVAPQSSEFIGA
In words: Exon20-Mutant-EGFR(D770_N771insSVD) kinase assay (TR-FRET). The test is classed as biochemical. The conditions noted are these: 2 mM ATP, several values per example where printed.

In test [3] the target is Ba/F3-EGFR-WT cells (Homo sapiens, UniProt P00533). Description: Ba/F3 cell survival assay (Cell Titer-Glo), WT EGFR. The conditions noted are these: without IL-3, with 10 ng/mL EGF, 48 h; read-out: BA/F3 (wild type) IC50. The test is classed as cell-based. The method, then: as §1, §2, §3, §4
Sequence of Ba/F3-EGFR-WT cells (P00533 whole entry, change not shown): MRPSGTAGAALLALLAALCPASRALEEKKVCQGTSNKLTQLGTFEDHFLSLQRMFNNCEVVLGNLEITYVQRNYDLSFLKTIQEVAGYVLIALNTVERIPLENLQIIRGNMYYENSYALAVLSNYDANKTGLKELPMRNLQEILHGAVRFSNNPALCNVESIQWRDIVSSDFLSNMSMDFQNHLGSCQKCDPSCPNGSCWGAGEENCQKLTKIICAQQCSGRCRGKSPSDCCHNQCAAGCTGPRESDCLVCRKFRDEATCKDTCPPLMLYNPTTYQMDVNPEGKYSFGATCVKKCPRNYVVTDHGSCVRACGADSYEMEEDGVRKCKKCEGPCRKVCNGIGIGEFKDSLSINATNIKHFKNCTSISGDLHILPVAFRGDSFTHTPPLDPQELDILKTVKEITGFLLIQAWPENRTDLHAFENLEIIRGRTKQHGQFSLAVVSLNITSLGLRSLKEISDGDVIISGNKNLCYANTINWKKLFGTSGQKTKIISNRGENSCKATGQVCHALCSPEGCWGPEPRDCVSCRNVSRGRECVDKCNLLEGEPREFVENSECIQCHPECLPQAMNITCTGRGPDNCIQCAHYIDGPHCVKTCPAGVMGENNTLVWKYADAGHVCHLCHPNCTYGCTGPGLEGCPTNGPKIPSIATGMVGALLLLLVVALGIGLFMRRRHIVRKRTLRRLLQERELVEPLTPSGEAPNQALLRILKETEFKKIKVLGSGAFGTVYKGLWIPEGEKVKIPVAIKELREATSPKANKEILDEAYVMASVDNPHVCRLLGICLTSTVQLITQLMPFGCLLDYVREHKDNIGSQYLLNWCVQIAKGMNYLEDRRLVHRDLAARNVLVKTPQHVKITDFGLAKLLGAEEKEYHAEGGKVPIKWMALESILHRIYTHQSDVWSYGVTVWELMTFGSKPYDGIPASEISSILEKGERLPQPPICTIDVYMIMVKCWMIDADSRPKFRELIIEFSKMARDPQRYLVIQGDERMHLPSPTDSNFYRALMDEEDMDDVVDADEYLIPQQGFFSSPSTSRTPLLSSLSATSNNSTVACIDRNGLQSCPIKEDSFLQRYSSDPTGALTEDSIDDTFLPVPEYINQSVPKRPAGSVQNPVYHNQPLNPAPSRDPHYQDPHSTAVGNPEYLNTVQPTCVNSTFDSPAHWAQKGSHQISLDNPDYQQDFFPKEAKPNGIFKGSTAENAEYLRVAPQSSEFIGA
Test [4] concerns the target T2, Bub1 (Homo sapiens, UniProt O43683).
T2 construct: catalytic domain of human Bub1 (amino acids 704-1085); His6 (N); made in house; host or cells: Hi5 insect cells
In words: Bub1 TR-FRET high ATP kinase assay. The test is classed as biochemical. The conditions noted are these: 2 mM ATP. The text has this:
Bub1 High ATP Kinase Assay
Bub1-inhibitory activity of compounds of the present invention at a high ATP concentration was quantified employing the Bub1 TR-FRET high ATP kinase assay as described in the following paragraphs.
N-terminally His6-tagged recombinant catalytic domain of human Bub1 (amino acids 704-1085), expressed in insect cells (Hi5) and purified by Ni-NTA affinity chromatography and subsequent size exclusion chromatography, was used as enzyme. As substrate for the kinase reaction the biotinylated peptide biotin-Ahx-[…]—SEQ ID 7 (C-terminus in amid form) was used which can be purchased e.g. form the company Biosyntan (Berlin, Germany).

The mark [5] stands for this setting: Bub1 high ATP (2 mM) IC50 [mol/l].
Where [6] appears, read: read-out: Bub1 high ATP (2 mM) IC50 [mol/l].

Read-outs that look alike come from different tables or passages of the source.

The text below walks through data of patent US12679836B2, “4H-pyrrolo[3,2-c]pyridin-4-one compounds” (Bayer Aktiengesellschaft, priority 2019, dated 2026).

T2 sequence (O43683 704-1085): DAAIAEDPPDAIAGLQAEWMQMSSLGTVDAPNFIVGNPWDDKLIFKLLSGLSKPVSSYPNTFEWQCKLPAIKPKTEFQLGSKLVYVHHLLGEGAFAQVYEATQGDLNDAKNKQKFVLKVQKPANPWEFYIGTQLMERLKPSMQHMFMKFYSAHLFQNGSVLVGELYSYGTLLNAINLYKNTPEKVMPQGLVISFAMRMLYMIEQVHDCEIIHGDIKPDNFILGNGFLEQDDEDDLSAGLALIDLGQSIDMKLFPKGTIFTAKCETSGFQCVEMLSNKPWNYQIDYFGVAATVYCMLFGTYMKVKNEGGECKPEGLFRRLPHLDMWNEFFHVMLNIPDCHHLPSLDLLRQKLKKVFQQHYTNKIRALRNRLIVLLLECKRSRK

In the case of `COc1c(Cl)cccc1Nc1c(-c2ccncc2O[C@@H](C)C2COCCO2)[nH]c2c1C(=O)NCC2` (single isomer, unassigned) [Example 59, 3-(3-chloro-2-methoxyanilino)-2-{3-[(1 S)-1-(1,4-dioxan-2-yl)ethoxy]pyridin-4-yl}-1,5,6,7-tetrahydro-4H-pyrrolo[3,2-c]pyridin-4-one], the GI50 in test [1] stood at 18.6 nM; in test [3], 336 nM. In test [2], the “mutEGFR (D770_N771insSVD) kinase assay IC50” value (shortened to “mutEGFR”) turned out to be 0.235 nM. In test [4] (setting [5]), this compound registered an IC50 of 12200 nM.
For `COc1c(Cl)cccc1Nc1c(-c2ccncc2O[C@H](C)C2COCCO2)[nH]c2c1C(=O)NCC2` (single isomer, unassigned) [Example 60], the GI50 was 52.7 nM in test [1] and 946 nM in test [3]. In addition, the “mutEGFR” value in test [2] was determined as 0.305 nM. The IC50 in test [4] (setting [5]) came to 16400 nM.
Consider `Cc1c(F)cccc1Nc1c(-c2ccncc2OCC2CN(C)CCO2)[nH]c2c1C(=O)NCC2` (single isomer, unassigned) [Example 63, 3-(3-fluoro-2-methylanilino)-2-(3-{[4-methylmorpholin-2-yl]methoxy}pyridin-4-yl)-1,5,6,7-tetrahydro-4H-pyrrolo[3,2-c]pyridin-4-one], for which the GI50 in test [1] was 147 nM; in test [3], 1370 nM. Further, the “mutEGFR” value in test [2] was determined as 0.265 nM. The IC50 in test [4] (setting [5]) was over 20000 nM.
Turning to `Cc1c(F)cccc1Nc1c(-c2ccncc2OCC2CN(C)CCO2)[nH]c2c1C(=O)NCC2` (single isomer, unassigned) [Example 64, 3-(3-fluoro-2-methylanilino)-2-(3-{[4-methylmorpholin-2-yl]methoxy}pyridin-4-yl)-1,5,6,7-tetrahydro-4H-pyrrolo[3,2-c]pyridin-4-one], the GI50 in test [1] worked out at 7.58 nM; in test [3] it was 271 nM. Moreover, the “mutEGFR” value in test [2] is 0.187 nM. Besides, in test [4] (setting [6]), the IC50 is over 20000 nM.
As to `CCc1c(F)cccc1Nc1c(-c2ccncc2OCC2COCCO2)[nH]c2c1C(=O)NCC2` (single isomer, unassigned) [Example 66, 2-(3-{[1,4-dioxan-2-yl]methoxy}pyridin-4-yl)-3-(2-ethyl-3-fluoroanilino)-1,5,6,7-tetrahydro-4H-pyrrolo[3,2-c]pyridin-4-one], the GI50 in test [1] was found to be 7.52 nM; in test [3] it was 252 nM. Also, the “mutEGFR” value in test [2] stood at 0.182 nM. The IC50 in test [4] (setting [5]) came to 5040 nM.
For `CCc1c(F)cccc1Nc1c(-c2ccncc2OCC2COCCO2)[nH]c2c1C(=O)NCC2` (single isomer, unassigned) [Example 67, 2-(3-{[1,4-dioxan-2-yl]methoxy}pyridin-4-yl)-3-(2-ethyl-3-fluoroanilino)-1,5,6,7-tetrahydro-4H-pyrrolo[3,2-c]pyridin-4-one] the same measures were 29 nM, 198 nM, 0.217 nM and 2080 nM.
Regarding `CCc1c(F)cccc1Nc1c(-c2ccncc2OCC2COC(C)(C)CO2)[nH]c2c1C(=O)NCC2` (single isomer, unassigned) [Example 69, 2-(3-{[5,5-dimethyl-1,4-dioxan-2-yl]methoxy}pyridin-4-yl)-3-(2-ethyl-3-fluoroanilino)-1,5,6,7-tetrahydro-4H-pyrrolo[3,2-c]pyridin-4-one], the GI50 worked out at 7.17 nM in test [1] and 312 nM in test [3]. The “mutEGFR” value in test [2] was 0.233 nM. In addition, in test [4] (setting [5]), the IC50 is over 20000 nM.
Regarding `CCc1c(F)cccc1Nc1c(-c2ccncc2OCC2COC(C)(C)CO2)[nH]c2c1C(=O)NCC2` (single isomer, unassigned) [Example 70, 2-(3-{[5,5-dimethyl-1,4-dioxan-2-yl]methoxy}pyridin-4-yl)-3-(2-ethyl-3-fluoroanilino)-1,5,6,7-tetrahydro-4H-pyrrolo[3,2-c]pyridin-4-one], the GI50 stood at 67.9 nM in test [1] and 714 nM in test [3]. Also, the “mutEGFR” value in test [2] is 0.168 nM. The IC50 in test [4] (setting [6]) is over 20000 nM.
As to `COc1c(Cl)cccc1Nc1c(-c2ccncc2OC(C)C2CN(C)CCO2)[nH]c2c1C(=O)NCC2` (single isomer, unassigned) [Example 72, 3-(3-chloro-2-methoxyanilino)-2-[3-({1-[4-methylmorpholin-2-yl]ethyl}oxy)pyridin-4-yl]-1,5,6,7-tetrahydro-4H-pyrrolo[3,2-c]pyridin-4-one], the GI50 in test [1] came to 67.3 nM; in test [3], 957 nM. For the same compound, in test [2], the “mutEGFR” value stood at 1.41 nM. The same compound displayed an IC50 in test [4] (setting [5]) of over 20000 nM.
As for `COc1c(Cl)cccc1Nc1c(-c2ccncc2OC(C)C2CN(C)CCO2)[nH]c2c1C(=O)NCC2` (single isomer, unassigned) [Example 73, 3-(3-chloro-2-methoxyanilino)-2-[3-({1-[4-methylmorpholin-2-yl]ethyl}oxy)pyridin-4-yl]-1,5,6,7-tetrahydro-4H-pyrrolo[3,2-c]pyridin-4-one], the GI50 worked out at 78 nM in test [1] and 1280 nM in test [3]. Also, the “mutEGFR” value in test [2] turned out to be 1.12 nM. Besides, the IC50 in test [4] (setting [6]) was over 20000 nM.
Take `COc1c(Cl)cccc1Nc1c(-c2ccncc2OC(C)C2CN(C)CCO2)[nH]c2c1C(=O)NCC2` (single isomer, unassigned) [Example 74, 3-(3-chloro-2-methoxyanilino)-2-[3-({1-[-4-methylmorpholine-2-yl]ethyl}oxy)pyridin-4-yl]-1,5,6,7-tetrahydro-4H-pyrrolo[3,2-c]pyridin-4-one]: the figures for the GI50 in test [1] and in test [3] were 51.1 nM and 828 nM, respectively. Further, in test [2], the “mutEGFR” value worked out at 0.661 nM. Further, the IC50 in test [4] (setting [6]) is over 20000 nM.
For `COc1c(Cl)cccc1Nc1c(-c2ccncc2OC(C)C2CN(C)CCO2)[nH]c2c1C(=O)NCC2` (single isomer, unassigned) [Example 75, 3-(3-chloro-2-methoxyanilino)-2-[3-({1-[-4-methylmorpholin-2-yl]ethyl}oxy)pyridin-4-yl]-1,5,6,7-tetrahydro-4H-pyrrolo[3,2-c]pyridin-4-one] the same measures were 571 nM, 3900 nM, 4.99 nM and over 20000 nM.
On to `COc1c(Cl)cccc1Nc1c(-c2ccncc2OCC2COCCO2)[nH]c2c1C(=O)NCC2` (stereo not drawn) [Example 1, 3-(3-chloro-2-methoxyanilino)-2-{3-[(1,4-dioxan-2-yl)methoxy]pyridin-4-yl}-1,5,6,7-tetrahydro-4H-pyrrolo[3,2-c]pyridin-4-one], for which the GI50 in test [1] is 9.8 nM; in test [3], 366 nM. Moreover, the “mutEGFR” value in test [2] stood at 0.159 nM. Besides, the IC50 in test [4] (setting [5]) was determined as 3360 nM.
For `COc1c(F)cccc1Nc1c(-c2ccncc2OCC2COCCO2)[nH]c2c1C(=O)NCC2` (stereo not drawn) [Example 4, 2-{3-[(1,4-dioxan-2-yl)methoxy]pyridin-4-yl}-3-(3-fluoro-2-methoxyanilino)-1,5,6,7-tetrahydro-4H-pyrrolo[3,2-c]pyridin-4-one] the same measures were 19.5 nM, 452 nM, 0.256 nM and 11300 nM.
The matching figures for `O=C1NCCc2[nH]c(-c3ccncc3OCC3COCCO3)c(Nc3cccc(Cl)c3Cl)c21` (stereo not drawn) [Example 7, 3-(2,3-dichloroanilino)-2-{3-[(1,4-dioxan-2-yl)methoxy]pyridin-4-yl}-1,5,6,7-tetrahydro-4H-pyrrolo[3,2-c]pyridin-4-one]: 18 nM, 292 nM, 0.137 nM and 10600 nM.
